Assay results: patent US20250325491A1, “POLYVALENT MOLECULE BASED LIPID NANOPARTICLES FOR NUCLEIC ACID DELIVERY” (Bio-TRIP B.V., priority 2022, published 2025)

Experiment: Dynamic light scattering (DLS) of nanoparticles
Type: physicochemical
Description: The hydrodynamic diameter of the formulated particles was determined by a number-weighted mean diameter provided by dynamic light scattering (DLS) using a Zetasizer Nano ZS in combination with a Malvern Zetasizer NanoSampler (Malvern Instruments, Worcestshire, UK). The size dispersity was measured as the poly dispersity index (PDI). For the DLS measurements, 100 μl of the formulated nanoparticle was diluted into 700 μl of PBS (137 mM NaCl, 2.7 mM KCl, 10 mM Na2HPO4 and 1.8 mM KH2PO4) and equilibrated at room temperature before the analysis. Each sample was measured 5 times, 10 runs of each 10 seconds, at wavelength 633 nm, without fixing the attenuator and measurement position.

[1] = mRNA-aNPs containing the polyvalent material, in vitro experiment formulation
[2] = mRNA-aNPs containing the polyvalent material, in vivo experiment formulation
[3] = siRNA-aNPs containing A2, N/P = 6, High Cholesterol (3.37 mg)
[4] = siRNA-aNPs containing A2, N/P = 6, Low Cholesterol (0.54 mg)
[5] = siRNA-aNPs containing A2, N/P = 6, Low Triglyceride (5 mg)
[6] = siRNA-aNPs containing A2, N/P = 6, No Triglyceride
[7] = siRNA-aNPs containing A2, N/P = 6, phospholipid DMPC
[8] = siRNA-aNPs containing A2, N/P = 6, phospholipid DPPC
[9] = siRNA-aNPs containing A2, N/P = 6, phospholipid DSPC
[10] = siRNA-aNPs containing A2, N/P = 6, phospholipid POPC
[11] = siRNA-aNPs containing A2, composition as Table S3 except N/P = 3
[12] = siRNA-aNPs containing A2, composition as Table S3 except N/P = 9
[13] = siRNA-aNPs containing the polyvalent material (Table S3), SD over individual repeats

CCCCCCCCOC(=O)CCN(CCCN(CCCCN(CCCN(CCC(=O)OCCCCCCCC)CCC(=O)OCCCCCCCC)CCCN(CCC(=O)OCCCCCCCC)CCC(=O)OCCCCCCCC)CCCN(CCC(=O)OCCCCCCCC)CCC(=O)OCCCCCCCC)CCC(=O)OCCCCCCCC [Example A2, G1-ACR-nC8-8]
DLS Hydrodynamic diameter (number mean) [1]: 53 nm | DLS PDI [1]: 0.27 | DLS Hydrodynamic diameter (number mean) [2]: 63 nm | DLS PDI [2]: 0.08 | DLS Hydrodynamic diameter [3]: 103 nm | DLS PDI [3]: 0.24 | DLS Hydrodynamic diameter [4]: 95 nm | DLS PDI [4]: 0.07 | DLS Hydrodynamic diameter [5]: 60 nm | DLS PDI [5]: 0.08 | DLS Hydrodynamic diameter [6]: 122 nm | DLS PDI [6]: 0.16 | DLS Hydrodynamic diameter [7]: 91 nm | DLS PDI [7]: 0.18 | DLS Hydrodynamic diameter [8]: 61 nm | DLS PDI [8]: 0.08 | DLS Hydrodynamic diameter [9]: 60 nm | DLS PDI [9]: 0.07 | DLS Hydrodynamic diameter [10]: 123 nm | DLS PDI [10]: 0.08 | DLS Hydrodynamic diameter [11]: 173 nm | DLS PDI [11]: 0.79 | DLS Hydrodynamic diameter [12]: 62 nm | DLS PDI [12]: 0.24 | nanoparticle diameter, all composition variations of Table S7 (siRNA-aNPs containing A2, in all cases): with diameters smaller than 200 nm are formed. | DLS Hydrodynamic diameter (number mean) [13]: 57 ± 6 nm | DLS PDI [13]: 0.16 ± 0.03
